Results as given in US20080146641A1, “ANTIBACTERIAL COMPOSITION” (priority 2001, published 2008).
≈ marks a conversion by molar mass, not a printed value. Read-outs that look alike come from different tables or passages of the source.

Legend:
[1] = test system: Salmonella entriditis IFO 3313; assay: Antibacterial spectrum, MIC on Muller Hinton Agar; format: cell-based, Salmonella enteritidis; conditions: Comparison 1 is a reference value (suspension at not less than 1400 μg)
[2] = test system: Lactobacillus plantarum (lactic acid bacterium) IFO 3070; assay: Antibacterial spectrum, MIC on Brain Heart Infusion Agar; format: cell-based; conditions: Comparison 1 is a reference value
[3] = test system: Saccharomyces cerevisiae IFO 1950; assay: Antibacterial spectrum, MIC on Sabouraud Glucose agar medium; format: cell-based; conditions: Comparison 1 is a reference value
Protocol: […] Additionally, as to the other α-amino acids used as the raw materials, flat plates for measuring susceptibility each of which contains a 500 to 20,000 μg/ml α-amino acid were prepared. […] The bacterial liquid for inoculation was drawn In lines and painted 1 to 2 cm on each flat plate for measuring susceptibility with a plastic loop, and incubated at 35° C. 1° C. for 18 to 20 hours. The lowest concentrations in which the painted parts were blocked to grow were defined as the minimum bacteriostasis concentrations of the antibacterial compositions, and the calcium oxide, the calcium hydroxide, and the α-amino acids used as the raw materials in the embodiments 1 through 16.
The minimum inhibitory concentrations to these typical kinds of bacteria were measured, however, the antibacterial compositions of the present invention are not to be restricted to the kinds of bacteria shown in the embodiments. Although the measuring method was similar to that of the embodiment 17, as the culture media for measuring susceptibility, Muller Hinton Agar (Difco) was used for enterococcus, cereus, salmonella, and pseudomonas aeruginosa; Brain Heart Infusion Agar (Difco) was used for lactobacillus; GAM agar medium (Nissui Pharmaceutical Co., Ltd.) was used for welsh; and Sabouraud Glucoss agar medium (Eiken Chemical Co., Ltd.) was used for saccharomyces.

[4] = test system: Enterococcus faecalis IFO 129B4; assay: Antibacterial spectrum, MIC on Muller Hinton Agar; format: cell-based; conditions: Comparison 1 is a reference value (suspension at not less than 1400 μg)
[5] = test system: Clostridium perfingens NCTC 8283; format: cell-based, Clostridium perfringens; conditions: Comparison 1 is a reference value (suspension at not less than 1400 μg)
[6] = cited from earlier work
[7] = test system: Staphylococcus aureus IFO 12732; assay: Minimum inhibitory concentration, agar plate for measuring susceptibility; format: cell-based; conditions: for MIC: Staphylococcus aureus, IFO12732, read-out: Minimum Inhibitory Concentration CaO, Staphylococcus aureus IFO 12732 (Gram-positive bacteria)
[8] = test system: Pseudomonas aeruginosa IFO 13275; assay: Antibacterial spectrum, MIC on Muller Hinton Agar; format: cell-based; conditions: Comparison 1 is a reference value (suspension at not less than 1400 μg)
[9] = test system: Bacillus cereus IFO 13494; assay: Antibacterial spectrum, MIC on Muller Hinton Agar; format: cell-based; conditions: Comparison 1 is a reference value (suspension at not less than 1400 μg)
[10] = test system: Escherichia coli IFO 3301; assay: Minimum inhibitory concentration, agar plate for measuring susceptibility; format: cell-based; conditions: for MIC: Escherichia coli, IFO3301, read-out: Minimum Inhibitory Concentration CaO, Escherichia coli IFO 3301 (Gram-negative bacteria)
[11] = Antibacterial effect, test not described
[12] = Table 2, raw materials, amino acid plates held 500 to 20,000 μg/ml α-amino acid

| SMILES | MIC [7, 12] | MIC [10, 12] | also measured |
| --- | --- | --- | --- |
| [O]=[Ca] [Comparison 1, calcium oxide] |  |  | Minimum Inhibitory Concentration CaO, Salmonella enteritidis [1]: 2500 µg/mL; Minimum Inhibitory Concentration CaO, Lactobachillus faecalis [2]: 313 µg/mL; Minimum Inhibitory Concentration CaO, Saccgaromyces cervisiae [3]: 625 µg/mL; Minimum Inhibitory Concentration CaO, Enterococcus faecalis [4]: 5000 µg/mL; Minimum Inhibitory Concentration CaO, Clostridium perfringens [5]: 5000 µg/mL; dissolves in water ([6]; 20° C.): 0.14 wt %; water-solubility ([6]; at 20° C.): 1400 μg/gH2O; Minimum Inhibitory Concentration CaO; Staphylococcus aureus IFO 12732 (Gram-positive bacteria) [7, 12]: 1000 µg/mL; Minimum Inhibitory Concentration CaO, Pseudomonas aeruginosa [8]: 2500 µg/mL; Minimum Inhibitory Concentration CaO, Bacilluscereus [9]: 2500 µg/mL; Minimum Inhibitory Concentration CaO; Escherichia coli IFO 3301 (Gram-negative bacteria) [10, 12]: 1250 µg/mL |
| [Ca+2].[OH-].[OH-] [Comparison 2, calcium hydroxide] |  |  | Minimum Inhibitory Concentration CaO; Staphylococcus aureus IFO 12732 (Gram-positive bacteria) [7]: 850 µg/mL; Minimum Inhibitory Concentration CaO; Escherichia coli IFO 3301 (Gram-negative bacteria) [10]: 900 µg/mL |
| NCC(=O)O [Comparison 3, glycine] | > 10000 µg/mL | > 10000 µg/mL |  |
| C[C@H](N)C(=O)O [Comparison 4, alanine] | > 10000 µg/mL | > 10000 µg/mL |  |
| CC(C)[C@H](N)C(=O)O [Comparison 5, valine] | > 10000 µg/mL | > 10000 µg/mL |  |
| CC(C)C[C@H](N)C(=O)O [Comparison 6, leucine] | > 10000 µg/mL | > 10000 µg/mL |  |
| CC[C@H](C)[C@H](N)C(=O)O [Comparison 7, isoleucine] | > 10000 µg/mL | > 10000 µg/mL |  |
| C[C@@H](O)[C@H](N)C(=O)O [Comparison 8, threonine] | > 20000 µg/mL | > 20000 µg/mL |  |
| N[C@@H](CSSC[C@H](N)C(=O)O)C(=O)O [Comparison 9, cystine] | 20000 µg/mL (≈ 83.2 mM) | > 20000 µg/mL |  |
| CSCC[C@H](N)C(=O)O [Comparison 10, Methionine] | > 10000 µg/mL | > 10000 µg/mL |  |
| NC(=O)C[C@H](N)C(=O)O [Comparison 11, asparagine] | > 20000 µg/mL | > 20000 µg/mL |  |
| NC(=O)CC[C@H](N)C(=O)O [Comparison 12, glutamine] | > 20000 µg/mL | > 20000 µg/mL |  |
| N[C@@H](Cc1c[nH]cn1)C(=O)O [Comparison 14, hystidine] |  |  | Minimum Inhibitory Concentration CaO; Staphylococcus aureus IFO 12732 (Gram-positive bacteria) [7, 12]: >20000 µg/mL; Minimum Inhibitory Concentration CaO; Escherichia coli IFO 3301 (Gram-negative bacteria) [10, 12]: >20000 µg/mL |
| N[C@@H](CC(=O)[O-])C(=O)[O-].[Ca+2] [aspartate calcium] |  |  | antibacterial effect / antibacterial property [11]: did not have antibacterial property |
| N[C@@H](CCC(=O)[O-])C(=O)[O-].[Ca+2] [calcium glutamate] |  |  | antibacterial effect / antibacterial property [11]: did not have antibacterial property |
